Experimental findings from publication PMC8958505, “Discovery of Potential Neuroprotective Agents against Paclitaxel-Induced Peripheral Neuropathy” (Journal of Medicinal Chemistry, 2022) are described below.

Experiment [1] concerns primary cortical neurons. Briefly: Neurite outgrowth assay of primary cortical neurons (image-based HCS) against paclitaxel-induced neurotoxicity. The format is cell-based, mouse. Conditions: for activity at 0.01 µM / activity at 1 µM: Mus musculus, Primary cortical neuron; for activity at 0.01 µM: read-out: C: Neurite outgrowth (% of control) of test compound (10 nM) + paclitaxel (1 μM); for activity at 1 µM: read-out: D: Neurite outgrowth (% of control) of test compound (1000 nM) + paclitaxel (1 μM). The source says:
(§1) Herein, we wish to report that an in vitro neurite outgrowth assay of cortical neurons integrated with an image-based high-content screening (HCS) platform is used to evaluate a commercially available library of 78 minoxidil-related derivatives,[22] leading to the identification of a series of analogues able to prevent or alleviate paclitaxel-induced neurotoxicity. The project began with screening compounds with the primary culture of cortical neurons from neonatal mice. More specifically, cerebral cortex neurons cultured from P0 C57BL/6J mouse pups were incubated with a test compound (10 and 1000 nM) prior to paclitaxel (1 μM) treatment. Subsequently, both neurite outgrowth and synaptogenesis were measured to evaluate the test compounds’ neuroprotective capacity. […] This unique feature is preserved for the core-structure screening of our in-house library in the following subject. Moreover, the substituent at the C4 position appears flexible in terms of structural diversity. Collectively, CSV0A024807, the only one displaying the best neuroprotective potency on both neurite outgrowth and synaptogenesis assays, was thus elected as a potential hit compound for further development.
(§2) Primary cortical or DRG cells were fixed with 4% paraformaldehyde for 15 min following compound and paclitaxel treatment. After washing with PBS, the fixed cells were permeabilized with PBS containing 0.05% Triton X-100 for 20 min and then blocked with commercial blocking buffer (#GTX30963; GeneTex, USA) at room temperature for 1 h. Subsequently, the cortical cells were stained for the extending processes and synaptic puncta by using anti-MAP2 (#MBS502140, 1:500; Mybiosource, USA) and anti-synaptophysin (#ab32127, 1:500; Abcam, UK) overnight. DRG cells were stained for the neurite and neuron nucleus by using anti-β III tubulin (#D71G9, 1:600; Cell Signaling, USA) and anti-NeuN monoclonal antibody (#MAB377, 1:400; Millipore, USA) overnight. On the second day, the samples were washed for 30 min with wash buffer and incubated with secondary antibodies (Alexa-488, 647 1:600; Thermo Fisher, USA) and 4 μg/mL Hoechst 33258 (#94403-1ML, 1:100; Merck, USA) at room temperature for 1 h. In the initial experiments of screening the potential neuroprotective compound for CIPN, ImageXpress^Micro (IXM) high-content imaging system (Molecular Devices, USA) driven by MetaXpress software was used. Images of treated cells were automatically acquired by using a 10× objective. Twenty-one images per well were taken in each of three channels (DAPI, FITC, and Cy5) to create a whole view of the entire neural network. The integrity of the neural network was evaluated using TIF images by importing them into MetaXpress software for analysis using the module for multiparameter, such as Neurite Outgrowth, Cell Scoring, and Transfluor. Furthermore, the score of synaptogenesis was analyzed in AcuityXpress software (Molecular Devices, USA).

Experiment [2] concerns primary cortical neurons. Briefly: Synaptogenesis assay of primary cortical neurons (image-based HCS) against paclitaxel-induced neurotoxicity. The format is cell-based, mouse. Conditions: for activity at 0.01 µM / activity at 1 µM: Mus musculus, Primary cortical neuron; for activity at 0.01 µM: read-out: A: Synaptogenesis (% of control) of test compound (10 nM) + paclitaxel (1 μM); for activity at 1 µM: read-out: B: Synaptogenesis (% of control) of test compound (1000 nM) + paclitaxel (1 μM).
From the text: as §1, §2

Where [3] appears, read: test compound 10 nM + paclitaxel 1 μM, mean ± SE.
The mark [4] stands for this setting: test compound 1000 nM + paclitaxel 1 μM, mean ± SE.

As for `COc1cc(/C=N/Nc2cc(N3CCOCC3)nc(N3CCOCC3)n2)ccc1O` [CSV0B002704], the activity at 0.01 µM in the experiment with primary cortical neurons [1] (setting [3]) was 79 ± 7%; in the experiment on primary cortical neurons [2] (setting [3]) it was 38 ± 2%. Besides, the activity at 1 µM in the experiment on primary cortical neurons [1] (setting [4]) was 65 ± 3%; in the experiment on primary cortical neurons [2] (setting [4]), 29 ± 6%.
Consider `O=[N+]([O-])c1ccc(/C=N/Nc2cc(N3CCOCC3)nc(N3CCOCC3)n2)cc1` [CSV0A024806], for which, in the experiment on primary cortical neurons [1] (setting [3]), the “C: Neurite outgrowth (% of control) of test compound (10 nM) + paclitaxel (1 μM)” value was 70±3 % of control. Besides, the “D: Neurite outgrowth (% of control) of test compound (1000 nM) + paclitaxel (1 μM)” value with primary cortical neurons [1] (setting [4]) is 68±6 % of control. Also, the “A: Synaptogenesis (% of control) of test compound (10 nM) + paclitaxel (1 μM)” value in the experiment on primary cortical neurons [2] (setting [3]) is given as 68±6 % of control. Also, in the experiment with primary cortical neurons [2] (setting [4]), the “B: Synaptogenesis (% of control) of test compound (1000 nM) + paclitaxel (1 μM)” value was 78±5 % of control.
Regarding `CCCN(CCC)c1cc(N/N=C/c2ccccc2OC)nc(N(CCC)CCC)n1` [CSV0A011999], the activity at 0.01 µM with primary cortical neurons [1] (setting [3]) worked out at 45 ± 5%; in the experiment with primary cortical neurons [2] (setting [3]), 33 ± 4%. For the same compound, the figures for the activity at 1 µM in the experiment with primary cortical neurons [1] (setting [4]) and with primary cortical neurons [2] (setting [4]) were 53 ± 3% and 37 ± 2%, respectively.
For `COc1ccc(/C=N/Nc2cc(N(C)C)nc(N(C)C)n2)cc1` [CSV0A034004] the same measures were 54 ± 7%, 65 ± 6%, 55 ± 4% and 76 ± 2%.
For `CCN(CC)c1cc(NNC(=O)CCc2ccccc2)nc(N(CC)CC)n1` [CSV0B009488] the same measures were 35 ± 4%, 38 ± 3%, 44 ± 3% and 34 ± 3%.
Consider `CN(C)c1cc(N/N=C/c2ccc(Cl)cc2Cl)nc(N(C)C)n1` [CSV0A047585], for which the activity at 0.01 µM in the experiment with primary cortical neurons [1] (setting [3]) is 57 ± 2%; in the experiment on primary cortical neurons [2] (setting [3]) it was 67 ± 2%. In addition, the activity at 1 µM in the experiment on primary cortical neurons [1] (setting [4]) came out at 57 ± 2%; in the experiment with primary cortical neurons [2] (setting [4]) it was 56 ± 0.2%.
For the compound `CCOc1ccc(Nc2nc(/N=C/c3c(OC)c(C(=O)Nc4ccccc4C)cc4ccccc34)c([N+](=O)[O-])c(NCc3ccccc3)n2)cc1` [CSVOD047961], the activity at 0.01 µM in the experiment with primary cortical neurons [1] (setting [3]) was 90 ± 2%; with primary cortical neurons [2] (setting [3]), 30 ± 3%. The results for the activity at 1 µM in the experiment with primary cortical neurons [1] (setting [4]) and in the experiment on primary cortical neurons [2] (setting [4]) were 95 ± 2% and 36 ± 1%, respectively.
For `COc1ccccc1/C=N/Nc1cc(N2CCCCC2)nc(N2CCCCC2)n1` [CSV0A061666] the same measures were 91 ± 3%, 41 ± 1%, 89 ± 7% and 42 ± 4%.
As to `CN(C)c1cc(NNC(=O)CCc2ccccc2)nc(N(C)C)n1` [CSV0B008273], the activity at 0.01 µM was found to be 46 ± 3% in the experiment with primary cortical neurons [1] and 39 ± 2% with primary cortical neurons [2]. Also, the values for the activity at 1 µM in the experiment with primary cortical neurons [1] and in the experiment with primary cortical neurons [2] were 53 ± 2% and 36 ± 2%, respectively.
For the compound `CCN(CC)c1ccc(/C=N/Nc2cc(N3CCCCC3)nc(N3CCCCC3)n2)cc1` [CSV0A023090], the activity at 0.01 µM in the experiment on primary cortical neurons [1] (setting [3]) stood at 57 ± 4%; with primary cortical neurons [2] (setting [3]), 82 ± 4%. In addition, the activity at 1 µM turned out to be 58 ± 3% with primary cortical neurons [1] (setting [4]) and 86 ± 0.4% in the experiment on primary cortical neurons [2] (setting [4]).
As for `O=C(CCc1ccccc1)NNc1cc(N2CCCC2)nc(N2CCCC2)n1` [CSV0C019163], in the experiment with primary cortical neurons [1], the activity at 0.01 µM was 68 ± 7% and the activity at 1 µM was 74 ± 1%. In the experiment with primary cortical neurons [2], the activity at 0.01 µM was 49 ± 4% and the activity at 1 µM is 53 ± 1%.
As for `CN(C)c1ccc(/C=N/Nc2cc(N3CCCCC3)nc(N3CCCCC3)n2)cc1` [CSV0A041618], the activity at 0.01 µM in the experiment with primary cortical neurons [1] (setting [3]) is 55 ± 2%; in the experiment on primary cortical neurons [2] (setting [3]), 83 ± 2%. Moreover, the values for the activity at 1 µM with primary cortical neurons [1] (setting [4]) and in the experiment on primary cortical neurons [2] (setting [4]) were 55 ± 2% and 64 ± 7%, respectively. For the same compound, the “attenuation of synaptogenesis inhibited by paclitaxel (in words)” value in the experiment with primary cortical neurons [2] (test compound 10 and 1000 nM prior to paclitaxel 1 μM, Figure 1A) is “significantly attenuated”.
For the compound `C(=N\Nc1cc(N2CCCCCC2)nc(N2CCCCCC2)n1)/c1ccncc1` [CSV0A061667], the activity at 0.01 µM with primary cortical neurons [1] (setting [3]) came to 82 ± 6%; in the experiment with primary cortical neurons [2] (setting [3]) it was 40 ± 6%. Also, the activity at 1 µM with primary cortical neurons [1] (setting [4]) came out at 82 ± 6%; with primary cortical neurons [2] (setting [4]) it was 41 ± 7%.
With `CN(C)c1cc(N/N=C/c2cccc(O)c2)nc(N(C)C)n1` [CSV0A021190], the figures for the activity at 0.01 µM in the experiment with primary cortical neurons [1] (setting [3]) and with primary cortical neurons [2] (setting [3]) were 43 ± 1% and 37 ± 1%, respectively. Moreover, the activity at 1 µM with primary cortical neurons [1] (setting [4]) worked out at 50 ± 2%; in the experiment with primary cortical neurons [2] (setting [4]), 45 ± 1%.
For `Oc1cccc(/C=N/Nc2cc(N3CCCC3)nc(N3CCCC3)n2)c1` [CSV0A055770] the same measures were 82 ± 4%, 24 ± 2%, 75 ± 4% and 25 ± 2%.
In the same order, the values of `CCN(CC)c1cc(N/N=C/c2ccccc2O)nc(N(CC)CC)n1` [CSV0B018834] are 39 ± 3%, 30 ± 3%, 39 ± 2% and 31 ± 3%.
Turning to `CN(C)c1cc(NNC(=O)c2ccccc2O)nc(N(C)C)n1` [CSV0A2327S0], the activity at 0.01 µM with primary cortical neurons [1] (setting [3]) came out at 55 ± 1%; in the experiment with primary cortical neurons [2] (setting [3]), 42 ± 2%. The activity at 1 µM was determined as 53 ± 5% in the experiment on primary cortical neurons [1] (setting [4]) and 41 ± 5% in the experiment with primary cortical neurons [2] (setting [4]).
As for `CN(C)c1cc(N/N=C/c2ccccc2O)nc(N(C)C)n1` [CSV0A034003], the “C: Neurite outgrowth (% of control) of test compound (10 nM) + paclitaxel (1 μM)” value in the experiment on primary cortical neurons [1] (setting [3]) was 61±3 % of control. Further, in the experiment with primary cortical neurons [1] (setting [4]), the “D: Neurite outgrowth (% of control) of test compound (1000 nM) + paclitaxel (1 μM)” value is reported as 62±3 % of control. Besides, the “A: Synaptogenesis (% of control) of test compound (10 nM) + paclitaxel (1 μM)” value with primary cortical neurons [2] (setting [3]) is listed as 67±5 % of control. In addition, the “B: Synaptogenesis (% of control) of test compound (1000 nM) + paclitaxel (1 μM)” value in the experiment on primary cortical neurons [2] (setting [4]) is 66±9 % of control.
On to `O=C(CCc1ccccc1)NNc1cc(N2CCCCC2)nc(N2CCCCC2)n1` [CSV0A062711], for which, in the experiment on primary cortical neurons [1], the activity at 0.01 µM turned out to be 80 ± 11% and the activity at 1 µM is 79 ± 6%. In the experiment on primary cortical neurons [2], the activity at 0.01 µM turned out to be 36 ± 0.5% and the activity at 1 µM came to 28 ± 3%.
`CN(C)c1cc(N/N=C/c2cccc([N+](=O)[O-])c2)nc(N(C)C)n1` [CSV0A027458]: the values for the activity at 0.01 µM in the experiment with primary cortical neurons [1] (setting [3]) and with primary cortical neurons [2] (setting [3]) were 71 ± 3% and 73 ± 3%, respectively. The activity at 1 µM in the experiment on primary cortical neurons [1] (setting [4]) is 65 ± 3%; in the experiment with primary cortical neurons [2] (setting [4]), 73 ± 3%.
For `CN(C)c1cc(N/N=C/c2ccccc2)nc(N(C)C)n1` [CSV0A047582], in the experiment with primary cortical neurons [1], the activity at 0.01 µM was 69 ± 3% and the activity at 1 µM was found to be 67 ± 3%. In addition, in the experiment on primary cortical neurons [2], the activity at 0.01 µM was 73 ± 3% and the activity at 1 µM stood at 77 ± 9%.
With `Cc1ccccc1C(=O)NNc1cc(N2CCOCC2)nc(N2CCOCC2)n1` [CSV0A062712], the activity at 0.01 µM came to 67 ± 10% with primary cortical neurons [1] (setting [3]) and 52 ± 7% with primary cortical neurons [2] (setting [3]). For the same compound, the activity at 1 µM worked out at 63 ± 6% in the experiment on primary cortical neurons [1] (setting [4]) and 51 ± 2% in the experiment on primary cortical neurons [2] (setting [4]).
For `Clc1ccc(/C=N/Nc2cc(N3CCCC3)nc(N3CCCC3)n2)cc1` [CSV0A024814], the activity at 0.01 µM in the experiment with primary cortical neurons [1] (setting [3]) amounted to 81 ± 0.005%; with primary cortical neurons [2] (setting [3]) it was 46 ± 1%. Moreover, the values for the activity at 1 µM in the experiment on primary cortical neurons [1] (setting [4]) and in the experiment with primary cortical neurons [2] (setting [4]) were 67 ± 2% and 31 ± 1%, respectively.
In the same order, the values of `CN(C)c1cc(NNC(=O)c2ccc(Cl)cc2)nc(N(C)C)n1` [CSV0A023089] are 47 ± 2%, 38 ± 3%, 50 ± 5% and 39 ± 6%.
For `CCN(CC)c1cc(N/N=C/c2cccc(O)c2)nc(N(CC)CC)n1` [CSV0A007879] the same measures were 42 ± 5%, 38 ± 3%, 35 ± 4% and 26 ± 5%.
For `Cc1ccc(S)c(Nc2cc(N)nc(N)n2)n1` [CSV0A0544S0] the same measures were 60 ± 2%, 63 ± 5%, 57 ± 5% and 52 ± 8%.
